Assay results taken from PubChem BioAssay (NCI).
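48-hour exposure; five concentrations; linearly interpolated endpoints. TGI denotes the concentration required for complete inhibition of growth.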

What was measured:
Experiment in all cases: inhibition of tumour cell growth, NCI panel, 48 h
[1] = system: RXF-631 renal
[2] = system: XF 498 CNS
[3] = system: M19-MEL melanoma
[4] = system: LXFL 529 NSCLC
[5] = system: KM20L2 colon
[6] = system: HOP-18 NSCLC
[7] = system: DLD-1 colon
[8] = system: MDA-MB-435
[9] = system: MDA-N

## O=c1c(C(c2ccc([N+](=O)[O-])cc2)c2c(O)c3ccccc3n(-c3ccccc3)c2=O)c(O)c2ccccc2n1-c1ccccc1
[1]
  TGI: 44.6 µM
[2]
  TGI: 58.4 µM
[3]
  TGI: > 100 µM
[4]
  TGI: 54.7 µM
[5]
  TGI: > 100 µM
[6]
  TGI: 9.08 µM
[7]
  TGI: > 100 µM

## COc1ccc(-c2cc(=O)c3cc(Cl)ccc3[nH]2)cc1
[1]
  TGI: > 100 µM
[2]
  TGI: > 100 µM
[3]
  TGI: > 100 µM
[4]
  TGI: > 100 µM
[5]
  TGI: > 100 µM
[6]
  TGI: > 100 µM
[7]
  TGI: > 100 µM

## COc1ccccc1NC(=O)CC(=O)n1nc(C)c(N=Nc2ccccc2Cl)c1C
[8]
  TGI: > 100 µM
[1]
  TGI: > 31.6 µM
[2]
  TGI: > 100 µM
[3]
  TGI: > 100 µM
[4]
  TGI: > 100 µM
[5]
  TGI: > 100 µM
[9]
  TGI: > 31.6 µM
[6]
  TGI: > 100 µM
[7]
  TGI: > 100 µM
